The subject of assay [1] is Human immunodeficiency virus 1. Briefly: Antiviral activity against HIV-1 III B infected in PBMC assessed as inhibition of viral replication at 100 microM relative to control. It is filed as functional. To be noted: Human immunodeficiency virus 1, III B.
Assay [2] has as its system Human immunodeficiency virus 2. In words: Antiviral activity against HIV-2 D194 infected in PBMC assessed as inhibition of viral replication at 45 microM relative to control. It is filed as functional. To be noted: Human immunodeficiency virus 2, D194, PBMC.
Assay [3] relates to Human immunodeficiency virus 1. Briefly: Antiviral activity against HIV-1 infected in human CEM cells assessed as inhibition of cytopathogenicity at 400 uM relative to control. Type of assay: functional. The note with it: Human immunodeficiency virus 1, CCRF-CEM.
The subject of another assay is CEM. In words: Inhibition of HIV reverse transcriptase in human CEM cells at 400 uM relative to control. To be noted: Human immunodeficiency virus. Type of assay: cell-based.

Take `Nc1nc2c(ncn2[C@H]2C[C@@](F)(CO)C2)c(=O)[nH]1`: in assay [1], the inhibition at 100 µM was found to be 30%. For the same molecule, the inhibition at 45 µM in assay [2] came out at 50%.
In the case of `Nc1nc2c(ncn2[C@H]2C[C@@](O)(CO)C2)c(=O)[nH]1`, the inhibition at 400 µM in assay [3] stood at 59%. For the same molecule, in the assay on CEM, the inhibition was under 50%.

Source of the values: ChEMBL document CHEMBL5325393, “A mini-review on synthesis and antiviral activity of natural product oxetanocin A derivatives” (Bioorg Med Chem, 2022).
